Assay results as given in patent US9024055B2, “Acetaminophen conjugates, compositions and methods of use thereof” (Acorda Therapeutics, Inc., priority 2011, dated 2015).
≈ marks a conversion by molar mass, not a printed value. Where two headings read alike, the source gives them in different places.

Experiments:
[1] = Stability in PBS at 37° C. (control matrix); format: physicochemical; conditions: out to four hours
Experimental: (§1) Loss of deuterated acetaminophen (APAP-d4) was also monitored in order to account for compound losses due to the metabolism of acetaminophen. Stability of the test samples in PBS at 37° C. was also determined.
(§2) Five lots of human whole blood (lithium heparin) were purchased from Biochemed and stored refrigerated at +5° C.±3° C. until use. Five lots of SD Rat whole blood (lithium heparin) were purchased from Biochemed and stored refrigerated at +5° C.±3° C. until use. Phosphate-buffered saline was used as a control matrix; it was prepared in-house and stored refrigerated at +5° C.±3° C. until use. Test Articles were weighed immediately prior use.
(§3) Whole blood was removed from storage and allowed to reach room temperature. It was pooled by species at this time. Once the pool reached room temperature, individual 1,980 μL aliquots of the whole blood pool were added to the appropriate tubes on test. Individual 1,980 μL aliquots of blank phosphate buffered saline (PBS) were added to the appropriate tubes on test. All tubes were pre-incubated at 37° C. in a water bath for 5 minutes.
The appropriate intermediate solution was added to each tube on test such that the final concentration of the test article in blood was 6.62 μM. The compound was assayed in triplicate at this concentration. Nominal O-minute samples were aliquoted into a 96-well plate as soon as spiking solution was added. Just prior to a 150 μL sample transfer, 450 μL of acetonitrile:methanol (1:1) was placed in the individual receiving wells in order to stop conversion reactions. The plate containing “stopped” samples was held, covered, in a wet-ice bath until all remaining timepoints were aliquoted. All remaining spiked samples were incubated at 37° C. in a water bath throughout the sampling period. […] Just prior to each transfer, 450 μL, of acetonitrile:methanol (1:1) was placed in the receiving wells for those aliquots in order to stop conversion reactions.

[2] = Solubility via modified protocol with water bath equilibration (Example 17B), HPLC; format: physicochemical
Experimental: 10-60 mg of Test Article A was weighed into a 1 mL micro centrifuge tube. 100 μL of solvent was added. Samples were mixed using a vortex mixer, and then sonicated for 15 minutes at ambient temperature. In the event of complete dissolution, more solute was added. The resultant suspensions were equilibrated in a water bath for 20 minutes and were centrifuged for 1 minute to yield an off-white saturated solution. The samples were then equilibrated a further 20 minutes in the water bath. 5-10 μL aliquots of the supernatant were diluted into 25 mL of mobile phase using volumetric flasks, prior to analysis by HPLC.
(§4) A HPLC method was developed to quantify Test Article A concentration via external standard analysis, and also monitor and quantify the hydrolysis product APAP. Linearity was determined over the range 20 to 120 μg/mL, and reproducibility was determined at 100 μg/mL.

[3] = Test article pharmacokinetics in rats after a single oral or intravenous dose; plasma acetaminophen by LC-MS/MS; format: in vivo, Sprague-Dawley rats; conditions: for Acetaminophen exposure compared with administration of acetaminophen: equivalent acetaminophen doses, oral and intravenous
Experimental: Forty-eight (48) male and female Sprague-Dawley rats were assigned to eight dose groups consisting of three animals per test article per dose route per gender. There were four test articles including acetaminophen, obtained from Sigma-Aldrich, and three acetaminophen conjugates as set forth below.
The animals received a single dose (oral or intravenous) of the test articles via oral gavage or slow intravenous bolus. […] Cage-side observations were performed daily; body weights were recorded prior to each dosing day. Blood samples for pharmacokinetic (PK) analyses were collected at 5 minutes to 8 hr post-dose and acetaminophen plasma concentrations were measured via a LC-MS/MS method.
Non-compartmental pharmacokinetic analysis was conducted for mean plasma acetaminophen concentrations for each test article. Measures of acetaminophen exposure (e.g., AUClast) were typically greater in female animals than male animals for all test articles and for both the oral and intravenous routes of administration.

[4] = Human liver microsome-mediated metabolism (appearance of acetaminophen); conditions: for Stability in buffer: phosphate buffer at 37° C. (human microsome study)
Experimental: The appearance of acetaminophen (APAP) when Test Articles A, B or C are incubated in human liver microsomes at 37° C. was determined. Loss of APAP-d4 was also monitored.
One lot consisted of ˜150 human mixed gender liver microsomes was purchased from BD Biosciences and stored frozen at −80° C. until use. Compounds were weighed immediately prior use. Test Article A, Test Article B, and Test Article C were weighed on a microbalance and dissolved in water to generate individual stock solutions, each at a concentration of 3.31 mM. Purity was taken into account for each stock solution prepared. APAP-d4 was weighed on a microbalance and dissolved in water to generate a stock solution at a 3.31 mM concentration. Purity was taken into account for the stock preparation.
One part Test Articles A, B or C and one part APAP-d4 was added to three parts water to arrive at an intermediate solution consisting of 662 μM for each compound.
The intermediate solutions prepared above were added to phosphate buffer to arrive at solutions consisting of 8.827 μM of each compound; these were called Substrate solutions. Incubation wells were placed in a wet ice-bath. 750 μL of Substrate solution was added to the appropriate wells. […] 50 μL of Microsomal suspension (20 mg/mL) was added to the appropriate wells. […] Samples were pre-incubated by shaking at 37° C. for 5 minutes. Just prior to starting the reactions in the next step 80 μL aliquots were removed and “killed” with 200 μL of Stop solution; these were the 0 min samples.
Reactions for the remaining samples were started by adding 180 μL Cofactor Solution (5×) to the appropriate wells. […] A 20 μL aliquot of Cofactor Solution (5×) was added to the stopped 0 min samples. […] At 2.5, 5, 10, 30, 60, 120, and 240 minutes, 100 μL of the specified incubation sample was removed and “killed” with 200 μL of Stop Solution. Once all required samples were collected, the plate was centrifuged at 3000 rpm for 10 minutes to pellet the precipitated proteins, and the resultant supernatants were transferred to a fresh 96-well plate for extraction and analysis.
Samples were analyzed for acetaminophen and acetaminophen-d4 concentrations, using a method that employs HPLC and MS/MS detection.

[5] = Rat liver microsome-mediated metabolism (appearance of acetaminophen); format: in vitro ADME; conditions: for Stability in buffer: phosphate buffer at 37° C. (rat microsome study)
Experimental: Loss of APAP-d4 was also monitored.
Lot 62548 consisting of ˜334 male rat livers and lot 59232 consisting of 10 female rat livers were pooled at a 1:1 ratio just before use. […] Compounds were weighed immediately prior to use. […] Purity was taken into account for the stock preparation.
Incubation wells were placed in a wet ice-bath.

[6] = Solubility testing, initial protocol (Example 17A), HPLC; format: physicochemical; conditions: thermodynamic from solid, 18 ° C.
Experimental: 10-60 mg of Test Article A was weighed into a 1 mL micro centrifuge tube. 100 μL of solvent was added. Samples were mixed using a vortex mixer, and then sonicated for 15 minutes at ambient temperature. In the event of complete dissolution, more solute was added. The resultant suspensions were centrifuged to yield an off-white saturated solution. A small aliquot of the supernatant was diluted prior to analysis by HPLC.
as §4

[7] = Solubility in phosphate-buffered saline (pH 7.2) at room temperature (Example 18); conditions: pH 7.2, aqueous buffer
[8] = cited from earlier work
[9] = Goodman and Gillman's 10th ed; cited from earlier work
[10] = cited from earlier work; remark: listed apart in the source
alkaline phosphatase = conditions: with alkaline phosphatase; cited from earlier work
[11] = Hydrolysis and metabolism in rat whole blood at 37° C. (appearance of acetaminophen); format: in vitro ADME, SD Rat; conditions: rat whole blood vs PBS
Experimental: as §1, §2
(§5) Purity was taken into account for the stock preparation.
as §3
(§6) The appropriate intermediate solution was added to each tube on test such that the final concentration of the test article in blood was 6.62 μM. The compound was assayed in triplicate at this concentration. […]

[12] = Hydrolysis and metabolism in human whole blood at 37° C. (appearance of acetaminophen); format: in vitro ADME; conditions: human whole blood vs PBS
Experimental: as §1, §2, §5
as §3, with “1980” for “1,980”, “pool” for “pool were added to the appropriate tubes on test. Individual 1,980 μL aliquots of blank phosphate buffered saline (PBS)”
as §6, with “concentration. Nominal O-minute samples were aliquoted into a 96-well plate as soon as spiking solution was added.” for “concentration.”

[13] = with and without cofactor, compared with buffer, 37° C., up to 240 minutes
[14] = Anesthesia and Analgesia 101, 90-96, 2005
[15] = British Journal of Anaesthesia 94 (5): 642-648, 2005

| SMILES | Stability in PBS [1] | Acetaminophen exposure compared with administration of acetaminophen [3] | Stability in buffer [4] | Stability in buffer [5] | Local tolerance profile [8, 14] | Local tolerance profile [8, 15] | Water solubility [10] | solubility [7] | Conversion to APAP in blood incubations versus buffer incubations [11] | Conversion to APAP in blood incubations versus buffer incubations [12] | other results |
| --- | --- | --- | --- | --- | --- | --- | --- | --- | --- | --- | --- |
| CC(=O)Nc1ccc(OC(=O)SCCS(=O)(=O)[O-])cc1.[Na+] [Test Article A, Sodium 2-((4-acetamidophenoxy)carbonylthio)ethanesulfonate] | rather stable | as great as, or greater than | stable | stable | – | – | – | – | – | – | solubility at 40 min ([2]; PEG-400, 19 °C, organic solvent or mixture, thermodynamic from solid): 103 mg/mL; solubility at 40 min ([2]; PEG-400/water (50% water), 19 °C, aqueous with cosolvent or surfactant or cyclodextrin, thermodynamic from solid): 306 mg/mL; solubility at 40 min ([2]; pH 5 buffer, 19 °C, pH 5, aqueous buffer, thermodynamic from solid): 226 mg/mL; solubility ([2]; pH 6.5 Buffer, 19 ° C.): 210 mg/mL; solubility at 40 min ([2]; pH 6.5 buffer, 19 °C, pH 6.5, aqueous buffer, thermodynamic from solid): 198 mg/mL; solubility at 40 min ([2]; pH 6.5 buffer, 35 °C, pH 6.5, aqueous buffer, thermodynamic from solid): 406 mg/mL; solubility at 40 min ([2]; pH 8 buffer, 19 °C, pH 8, aqueous buffer, thermodynamic from solid): 198 mg/mL; solubility at 40 min ([2]; propylene glycol, 19 °C, organic solvent or mixture, thermodynamic from solid): 69 mg/mL; solubility at 40 min ([2]; propylene glycol/water (50% water), 19 °C, aqueous with cosolvent or surfactant or cyclodextrin, thermodynamic from solid): 185 mg/mL; solubility ([2]; water, 0 °C, water, thermodynamic from solid, Water (in Fridge), 0 to 4 ° C., read-out: Solubility): 78 mg/mL; solubility at 40 min ([2]; water, 19 °C, thermodynamic from solid, Water Repeat, modified protocol): 230 mg/mL; Time to maximum acetaminophen plasma concentration compared with Test Articles C and B ([3]; oral administration): longer time to maximum acetaminophen plasma concentrations; Conversion to acetaminophen in human liver microsomes [4, 13]: at a level greater than incubations with buffer; Conversion to acetaminophen in rat liver microsomes [5, 13]: at a level much greater than incubations with buffer; solubility at 15 min ([6]; aqueous buffer, PBS): 246 mg/mL; solubility at 15 min ([6]; aqueous with cosolvent or surfactant or cyclodextrin, 50% Water, Ethanol): 199 mg/mL; solubility at 15 min ([6]; organic solvent or mixture, Ethanol): 1 mg/mL; solubility at 15 min ([6]; Water, initial protocol): 280 mg/mL |
| CC(=O)Nc1ccc(O)cc1 [Acetaminophen, N-(4-hydroxyphenyl)acetamide] | – | – | – | – | 0% | 52% | about 1.3 g per 100 mL | – | – | – | solubility ([7]; phosphate-buffered saline): 13.1 mg/mL (≈ 86.7 mM); Half-life [9]: about 2 hours |
| CCN(CC)CC(=O)Oc1ccc(NC(C)=O)cc1 [Propacetamol, 4-acetamidophenyl 2-(diethylamino)acetate] | – | – | – | – | 49% | 90% | – | – | – | – | – |
| CC(=O)Nc1ccc(OP(=O)(O)O)cc1 [4-acetamidophenyl dihydrogen phosphate] | – | – | – | – | – | – | 50 g per 100 mL | – | – | – | Time required in vitro to yield acetaminophen from the derivative (alkaline phosphatase): about 15 hours |
| CC(=O)Nc1ccc(OC(=O)NCCS(=O)(=O)[O-])cc1.[Na+] [Test Article C, Sodium 2-((4-acetamidophenoxy)carbonylamino)ethanesulfonate, reference compound] | not stable | substantially lower | not stable | not stable | – | – | – | 492 mg/mL | nearly equivalent | nearly equivalent | – |
| CC(=O)Nc1ccc(OC(=O)NCCS(=O)[O-])cc1.[Na+] [Test Article B, Sodium 2-((4-acetamidophenoxy)carbonylamino)ethanesulfinate] | not stable | substantially lower | not stable | not stable | – | – | – | 424 mg/mL | nearly equivalent | nearly equivalent | – |
